ChEMBL document CHEMBL6134871, “PCSK9 Targeted Autophagosome-Tethering Compounds: Design, Synthesis, and Antiatherosclerosis Evaluation” (J Med Chem, 2025)
Blank lines part the entries; values can stand above or below the compound they belong to. Calls of active or inactive are those of the source. The rule behind the calls is not given here.

Columns and labels:
Huh-7 [1] = assay: Induction of autophagy in human Huh-7 cells assessed as colocalization of lysosome with LC3B protein at 100 nM incubated for 3 hrs by DAPI staining based fluorescence based analysis; format: functional, cell-based
Huh-7 [2] = assay: Induction of autophagy in human Huh-7 cells assessed as colocalization of lysosome with LAMP1 protein at 100 nM incubated for 3 hrs by DAPI staining based fluorescence based analysis; format: functional, cell-based
Huh-7 [3] = assay: Induction of LDL uptake in human Huh-7 cells at 100 nM incubated for 24 hrs by DiI-LDL DMEM staining based fluorescence microplate reader assay; format: functional, cell-based
Huh-7 [4] = assay: Induction of autophagy in human Huh-7 cells assessed as reduction in PCSK9 level at 37 uM incubated for 24 hrs in presence of chloroquine by Western blot analysis; format: functional, cell-based
Huh-7 [5] = assay: Induction of autophagy in human Huh-7 cells assessed as reduction in PCSK9 level at 100 nM incubated for 24 hrs in presence of carfilzomib by Western blot analysis; format: functional, cell-based
Huh-7 [6] = assay: Induction of autophagy in human Huh-7 cells assessed as reduction in PCSK9 level at 100 nM incubated for 24 hrs in presence of EBSS by Western blot analysis; format: functional, cell-based
HUVEC [7] = assay: Anti-atherosclerosis activity in human HUVEC cells assessed as reduction in Bax level at 100 nM incubated for 24 hrs by Western blot analysis; format: functional, cell-based
HUVEC [8] = assay: Anti-atherosclerosis activity in human HUVEC cells transfected with PCSK9 siRNA assessed as increase in Bcl-2 level at 100 nM incubated for 24 hrs by Western blot analysis; format: functional, cell-based
HUVEC [9] = assay: Anti-atherosclerosis activity in human HUVEC cells transfected with PCSK9 siRNA assessed as inhibition of ox-LDL-induced caspase 9 expression at 100 nM preincubated with compound for 24 hrs followed by ox-LDL induction and measured after 24 hrs by Western blot analysis; format: functional, cell-based; details: time 48.0 hrs
HUVEC [10] = assay: Anti-atherosclerosis activity in human HUVEC cells transfected with PCSK9 siRNA assessed as inhibition of ox-LDL-induced caspase 3 expression at 100 nM preincubated with compound for 24 hrs followed by ox-LDL induction and measured after 24 hrs by Western blot analysis; format: functional, cell-based; details: time 48.0 hrs
HUVEC [11] = assay: Anti-atherosclerosis activity in human HUVEC cells transfected with PCSK9 siRNA assessed as inhibition of LPS-induced ICAM-1 mRNA expression at 100 nM preincubated with compound for 24 hrs followed by LPS induction and measured after 24 hrs by qPCR analysis; format: functional, cell-based; details: time 48.0 hrs
HUVEC [12] = assay: Anti-atherosclerosis activity in human HUVEC cells transfected with PCSK9 siRNA assessed as inhibition of LPS-induced VCAM-1 mRNA expression at 100 nM preincubated with compound for 24 hrs followed by LPS induction and measured after 24 hrs by qPCR analysis; format: functional, cell-based; details: time 48.0 hrs
THP-1 [13] = assay: Anti-atherosclerosis activity in human THP-1 cells transfected with PCSK9 siRNA assessed as reduction in ox-LDL-induced amount of red lipid droplets at 100 nM preincubated with compound for 24 hrs followed by ox-LDL induction and measured after 24 hrs by oil red staining based analysis; format: functional, cell-based; details: time 48.0 hrs
THP-1 [14] = assay: Anti-atherosclerosis activity in human THP-1 cells transfected with PCSK9 siRNA assessed as reduction in CD36 level at 100 nM preincubated with compound for 24 hrs followed by ox-LDL induction and measured after 24 hrs by Western blot analysis; format: functional, cell-based; details: time 48.0 hrs
THP-1 [15] = assay: Anti-atherosclerosis activity in human THP-1 cells transfected with PCSK9 siRNA assessed as reduction in NLRP3 level at 100 nM preincubated with compound for 24 hrs followed by ox-LDL induction and measured after 24 hrs by Western blot analysis; format: functional, cell-based; details: time 48.0 hrs
THP-1 [16] = assay: Anti-atherosclerosis activity in human THP-1 cells transfected with PCSK9 siRNA assessed as reduction in NF-kappaB level at 100 nM preincubated with compound for 24 hrs followed by ox-LDL induction and measured after 24 hrs by Western blot analysis; format: functional, cell-based; details: time 48.0 hrs
MOVAS [17] = assay: Downregulation of PCSK9 expression in mouse MOVAS cells transfected with PCSK9 siRNA incubated for 24 hrs Western blot analysis; format: functional, cell-based
MOVAS [18] = assay: Antiproliferative activity mouse MOVAS cells assessed as inhibition of cell growth incubated for 24 hrs by MTT assay; format: functional, cell-based
Huh-7 [19] = assay: Antiproliferative activity human Huh-7 cells assessed as inhibition of cell growth incubated for 24 hrs by MTT assay; format: functional, cell-based
HepG2 = assay: Antiproliferative activity human HepG2 cells assessed as inhibition of cell growth incubated for 24 hrs by MTT assay; format: functional, cell-based
THP-1 [20] = assay: Antiproliferative activity human THP-1 cells assessed as inhibition of cell growth incubated for 24 hrs by MTT assay; format: functional, cell-based
HUVEC [21] = assay: Antiproliferative activity human HUVEC cells assessed as inhibition of cell growth incubated for 24 hrs by MTT assay; format: toxicity, cell-based
[22] = Toxicity in mouse assessed as change in body weight at 5 to 15 mg/kg, po; format: organism-based; details: in vivo, dose 5-15 mg/kg
[23] = Toxicity in mouse assessed as heart damage at 5 to 15 mg/kg, po; format: organism-based; details: in vivo, dose 5-15 mg/kg
[24] = Toxicity in mouse assessed as kidney damage at 5 to 15 mg/kg, po; format: organism-based; details: in vivo, dose 5-15 mg/kg
[25] = Tmax in C57 mouse at 5 mg/kg, po; format: ADME, organism-based; details: in vivo
[26] = Tmax in C57 mouse at 5 mg/kg, ip; format: ADME, organism-based; details: in vivo
[27] = Cmax in C57 mouse at 5 mg/kg, po; format: ADME, organism-based; details: in vivo
[28] = Cmax in C57 mouse at 5 mg/kg, ip; format: ADME, organism-based; details: in vivo
[29] = AUC (0 to t) in C57 mouse at 5 mg/kg, iv; format: ADME, organism-based; details: in vivo
[30] = AUC (0 to t) in C57 mouse at 5 mg/kg, po; format: ADME, organism-based; details: in vivo
[31] = AUC (0 to t) in C57 mouse at 5 mg/kg, ip; format: ADME, organism-based; details: in vivo
[32] = AUC (0 to infinity) in C57 mouse at 5 mg/kg, iv; format: ADME, organism-based; details: in vivo
[33] = AUC (0 to infinity) in C57 mouse at 5 mg/kg, po; format: ADME, organism-based; details: in vivo
[34] = AUC (0 to infinity) in C57 mouse at 5 mg/kg, ip; format: ADME, organism-based; details: in vivo
[35] = Oral bioavailability in C57 mouse at 5 mg/kg; format: ADME, organism-based; details: in vivo
[36] = Bioavailability in C57 mouse at 5 mg/kg, ip; format: ADME, organism-based; details: in vivo
Mus musculus [37] = assay: Anti-atherosclerosis activity in mouse assessed as reduction in TC level in plasma at 15 mg/kg, po measured for 3 weeks; format: functional, organism-based
Mus musculus [38] = assay: Anti-atherosclerosis activity in mouse assessed as […] in LDL level in liver at 15 mg/kg, po measured for 3 weeks; format: functional, organism-based
Mus musculus [39] = assay: Anti-atherosclerosis activity in mouse assessed as reduction in LDLR level in liver at 15 mg/kg, po measured for 3 weeks by Western blot analysis; format: functional, organism-based
Mus musculus [40] = assay: Anti-atherosclerosis activity in mouse assessed as reduction in PCSK9 level in liver at 15 mg/kg, po measured for 3 weeks by Western blot analysis; format: functional, organism-based
Mus musculus [41] = assay: Anti-atherosclerosis activity in mouse assessed as reduction in NF-kappab level in liver at 15 mg/kg, po measured for 3 weeks by Western blot analysis; format: functional, organism-based
Mus musculus [42] = assay: Anti-atherosclerosis activity in mouse assessed as reduction in NLRP3 level in liver at 15 mg/kg, po measured for 3 weeks by Western blot analysis; format: functional, organism-based
Mus musculus [43] = assay: Anti-atherosclerosis activity in mouse assessed as reduction in plaque area in aorta at 15 mg/kg, po measured for 3 weeks; format: functional, organism-based

Structure (SMILES): O=C1Nc2ccc(I)cc2/C1=C/c1cc(Br)c(O)c(Br)c1
- Activity (Huh-7 [1]): inactive
- Activity (Huh-7 [2]): inactive

Structure (SMILES): COc1cc2c(cc1O)C(C)(CC(=O)Nc1nccs1)NCC2 (stereo not given)
- Activity (Huh-7 [1]): inactive
- Activity (Huh-7 [2]): inactive

- Tmax [25]: 15 min
- Tmax [26]: 30 min
- Cmax [27]: 57.8 ng/mL
- Cmax [28]: 1860 ng/mL
- AUC(0-t) [29]: 9500 ng·h/mL
- AUC(0-t) [30]: 59.8 ng·h/mL
- AUC(0-t) [31]: 6070 ng·h/mL
- AUC ([32]; mouse, iv, 5 mg/kg): 9932 ng·h/mL
- AUC ([33]; mouse, po, 5 mg/kg): 177 ng·h/mL
- AUC(0-inf) [34]: 6350 ng·h/mL
- F ([35]; mouse, po, 5 mg/kg): 0.63%
- bioavailability [36]: 63.9%
Structure (SMILES): COc1cc2c(cc1OCCOCCOCCOCCN1C(=O)/C(=C\c3cc(Br)c(O)c(Br)c3)c3cc(I)ccc31)C(C)(CC(=O)Nc1nccs1)NCC2 (stereo not given)
- Activity (Huh-7 [3]): Active
- Activity (Huh-7 [4]): inactive
- Activity (Huh-7 [5]): Active
- Activity (Huh-7 [6]): Active
- Activity (Huh-7 [1]): Active
- Activity (Huh-7 [2]): Active
- Activity (HUVEC [7]): Active
- Activity (HUVEC [8]): Active
- Activity (HUVEC [9]): Active
- Activity (HUVEC [10]): Active
- Activity (HUVEC [11]): Active
- Activity (HUVEC [12]): Active
- Activity (THP-1 [13]): Active
- Activity (THP-1 [14]): Active
- Activity (THP-1 [15]): Active
- Activity (THP-1 [16]): Active
- Activity (MOVAS [17]): Active
- Activity (MOVAS [18]): Active
- Activity (Huh-7 [19]): Active
- Activity (HepG2): Active
- Activity (THP-1 [20]): Active
- Activity (HUVEC [21]): Non-toxic
- Activity [22]: Non-toxic
- Activity [23]: Non-toxic
- Activity [24]: Non-toxic
- Activity (Mus musculus [37]): Active
- Activity (Mus musculus [38]): Active
- Activity (Mus musculus [39]): Active
- Activity (Mus musculus [40]): Active
- Activity (Mus musculus [41]): Active
- Activity (Mus musculus [42]): Active
- Activity (Mus musculus [43]): Active

- Tmax [25]: 60 min
- Tmax [26]: 60 min
- Cmax [27]: 55 ng/mL
- Cmax [28]: 423 ng/mL
- AUC(0-t) [29]: 9810 ng·h/mL
- AUC(0-t) [30]: 101 ng·h/mL
- AUC(0-t) [31]: 951 ng·h/mL
- AUC(0-inf) ([32]; C57, mouse): 10600 ng·h/mL
- AUC(0-inf) ([33]; C57, mouse): 119 ng·h/mL
- AUC(0-inf) [34]: 987 ng·h/mL
- bioavailability ([35]; C57, mouse): 1.02%
- bioavailability [36]: 9.69%
Structure (SMILES): COc1cc2c(cc1OCCCCN1C(=O)/C(=C\c3cc(Br)c(O)c(OC)c3)c3cc(Br)ccc31)C(C)(CC(=O)Nc1nccs1)NCC2 (stereo not given)
